Test results taken from patent US8354405B2, “6-cycloamino-3-(pyrid-4-yl)imidazo[1,2-b]pyridazine derivatives, preparation thereof and therapeutic use thereof” (Sanofi, priority 2007, dated 2013).

What was measured:
[1] = target: casein kinase 1 epsilon (CK1 epsilon) (Homo sapiens, UniProt P49674); test: Filter-plate assay of ATP-33P for CK1 epsilon inhibitors (casein phosphorylation); format: biochemical; details: inhibition of phosphorylation of casein, ATP-33P filter-plate, ATP 10 μM
Procedure: The capacity of the compounds of the invention to inhibit the phosphorylation of casein by casein kinases 1 epsilon and delta may be evaluated according to the procedure described in document US 2005/0 131 012.
Filter-Plate Assay of ATP-^33P for the Screening of CK1 Epsilon Inhibitors:
The effect of the compounds on inhibition of the phosphorylation of casein by the enzyme casein kinase 1 epsilon (CK1 epsilon) is measured, using a casein assay via filtration of ATP-^33P in vitro.
Casein kinase 1 epsilon (0.58 mg/ml) is obtained via fermentation and purification processes performed according to methods that are well known to those skilled in the art, or may also be obtained from Invitrogen Corporation™ (human CK1 epsilon).
The compounds are tested at five different concentrations so as to generate IC50 values, i.e. the concentration at which a compound is capable of inhibiting the enzymatic activity by 50%, or alternatively the percentage of inhibition at a concentration of 10 micromolar.
“U”-bottomed Falcon plates are prepared by placing 5 μL of solutions of the compounds according to the invention at concentrations of 10, 1, 0.1, 0.01 or 0.001 μM in different wells. The solutions of the compounds according to the invention at these various concentrations are prepared by diluting in a test buffer (Tris 50 mM pH 7.5, MgCl2 […], DTT 2 mM and EGTA 1 mM) a stock solution in DMSO at a concentration of 10 mM. Next, 5 μL of dephosphorylated casein are added to a final concentration of 0.2 μg/μL, 20 μL of CK1 epsilon to a final concentration of 3 ng/μL, and 20 μL of ATP-^33P to a final concentration of 0.02 μCi/μL mixed with cold ATP (10 μM final—approximately 2×10^6 CPM per well). The final total test volume per well is equal to 50 μL.
The “U”-bottomed Falcon® test plate mentioned above is vortexed, and then incubated at room temperature for 2 hours. After 2 hours the reaction is stopped by adding an ice-cold solution of 65 μL of cold ATP (2 mM) prepared in test buffer.
100 μL of the reaction mixture are then transferred from the “U”-bottomed Falcon® plate into Millipore® MAPH filter plates, preimpregnated with 25 μL of ice-cold 100% TCA.
The Millipore MAPH filter plates are agitated gently and are left to stand at room temperature for at least 30 minutes to precipitate the proteins.
After 30 minutes, the filter plates are sequentially washed and filtered with 2×150 μL of 20% TCA, 2×150 μL of 10% TCA and 2×150 μL of 5% TCA (6 washes in total per plate/900 μL per well).
The plates are left to dry overnight at room temperature. Next, 40 μL of Microscint-20 Packard® scintillation liquid are added per well and the plates are closed in a leak tight manner. The radiation emitted by each well is then measured for 2 minutes in a TopCount NXT Packard® scintillation counter, in which the values of CPM/well are measured.
The percentage inhibition of the capacity of the enzyme to phosphorylate the substrate (casein) is determined for each concentration of test compound. These inhibition data expressed as percentages are used to calculate the IC50 value for each compound compared with the controls.
The kinetic studies determined the KM value for ATP as being 21 μM in this test system.

human CK1 delta = target: T1, human CK1 delta (Homo sapiens, UniProt P48730); test: FRET fluorescence test, Z'Lyte kinase assay kit, CK1 delta; format: biochemical; details: peptide SER/THR 11 2 μM, ATP 4 times KM
T1 construct: purchased Invitrogen Corporation PV3665
T1 sequence (P48730 whole entry): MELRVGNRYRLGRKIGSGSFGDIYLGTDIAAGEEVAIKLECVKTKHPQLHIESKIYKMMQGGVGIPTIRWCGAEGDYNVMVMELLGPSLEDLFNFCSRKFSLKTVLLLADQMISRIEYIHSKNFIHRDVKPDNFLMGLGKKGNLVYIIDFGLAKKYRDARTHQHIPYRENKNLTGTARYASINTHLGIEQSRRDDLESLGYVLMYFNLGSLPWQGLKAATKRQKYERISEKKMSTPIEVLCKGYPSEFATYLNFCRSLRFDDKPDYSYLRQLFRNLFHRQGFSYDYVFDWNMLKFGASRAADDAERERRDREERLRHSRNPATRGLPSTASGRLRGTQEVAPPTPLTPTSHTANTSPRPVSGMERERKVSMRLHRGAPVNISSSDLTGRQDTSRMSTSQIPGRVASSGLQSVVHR
From the text: The capacity of the compounds of the invention to inhibit the phosphorylation of casein by the casein kinases 1 epsilon and delta may be evaluated using an FRET (Fluorescence Resonance Energy Transfer) fluorescence test with the aid of the “Z′Lyte™ kinase assay kit” (reference PV3670; Invitrogen Corporation™) according to the manufacturer's instructions.
The casein kinases 1 used are obtained from Invitrogen Corporation (human CK1 epsilon PV3500 and human CK1 delta PV3665).
A peptide substrate, labeled at both ends with a fluorophore-donating group (coumarin) and a fluorophore-accepting group (fluorescein) constituting an FRET system is […] in the presence of ATP by casein kinase 1 epsilon or delta in the presence of increasing concentrations of compounds of the invention.
The mixture is treated with a site-specific protease that specifically cleaves the substrate peptide to form two fluorescent fragments having a large fluorescence emission ratio.
The fluorescence observed is thus related to the capacity of the products of the invention to inhibit the phosphorylation of the substrate peptide by casein kinase 1 epsilon or casein kinase 1 delta.
The compounds of the invention are dissolved at different concentrations starting with a 10 mM stock solution in DMSO diluted in a buffer containing 50 mM HEPS, pH 7.5, 1 mM EGTA, 0.01% Brij-35, 10 mM MgCl2 for casein kinase 1 epsilon and supplemented with Trizma Base (50 mM), pH 8.0 and NaN3 (0.01% final) for casein kinase 1 delta.
The phosphorylation of the substrate peptide SER/THR 11 obtained from Invitrogen Corporation™ is performed at a final concentration of 2 μM. The ATP concentration is 4 times the KM, this value being 2 μM for casein kinase 1 epsilon and 4 μM for casein kinase 1 delta.
The emitted fluorescence is measured at wavelengths of 445 and 520 nm (excitation at 400 nm).

[2] = system: Mper1-luc Rat-1 (P2C4) fibroblasts; test: Circadian cell assay (mPer1-luciferase reporter, period prolongation); format: cell-based; details: effective concentration that induces a 1-hour prolongation of the circadian period
Procedure: Experimental Protocols for Circadian Cell Assay
Mper1-luc Rat-1 (P2C4) fibroblast cultures were prepared by dividing the cultures every 3-4 days (about 10-20% of confluence) on 150 cm^2 degassed polystyrene tissue culture flasks (Falcon® #35-5001) and maintained in growth medium [EMEM (Cellgro #10-010-CV); 10% fetal bovine serum (FBS; Gibco #16000-044); and 50 I.U./mL of penicillin-streptomycin (Cellgro #30-001-CI)] at 37° C. and under 5% CO2.
Cells obtained from Rat-1 fibroblast cultures at 30-50% of confluence as described above were co-transfected with vectors containing the selection marker for resistance to zeocin for a stable transfection and a luciferase reporter gene directed by the promoter mPer-1. After 24 to 48 hours, the cultures were divided on 96-well plates and maintained in growth medium supplemented with 50-100 μg/mL of zeocin (Invitrogen® #45-0430) for 10-14 days. The zeocin-resistant stable transfectants were evaluated for expression of the reporter by adding to the growth medium luciferin 100 μM (Promega® #E1603®) and by assaying the luciferase activity on a TopCount® scintillation counter (Packard model #C384V00). The Rat-1 cell clones expressing both zeocin resistance and luciferase activity directed by mPer1 were serum-shock synchronized with 50% horse serum [HS (Gibco® #16050-122)] and the activity of the circadian reporter was evaluated. The P2C4 clone of fibroblasts Mper1-luc Rat-1 was selected to test the compound.
The Mper1-luc Rat-1 (P2C4) fibroblasts at 40-50% of confluence obtained according to the protocol described above were plated out onto 96-well opaque tissue culture plates (Perkin Elmer® #6005680). The cultures are maintained in growth medium supplemented with 100 μg/mL of zeocin (Invitrogen #45-0430) until they reached 100% of confluence (48-72 hours). The cultures were then synchronized with 100 μL of synchronization medium [EMEM (Cellgro #10-010-CV); 100 I.U./mL of penicillin-streptomycin (Cellgro #30-001-C1); 50% HS (Gibco #16050-122)] for 2 hours at 37° C. and under 5% CO2. After synchronization, the cultures were rinsed with 100 μL of EMEM (Cellgro #10-010-CV) for 10 minutes at room temperature. After rinsing, the medium is replaced with 300 μL of CO2-independent medium [CO2I (Gibco #18045-088); L-glutamine 2 mM (Cellgro #25-005-C1); 100 U.I./mL of penicillin-streptomycin (Cellgro #30-001-C1); luciferin 100 μM (Promega #E 1603)]. […]
The two methods produced a virtually identical period estimation on a range of circadian periods. […] The data were analyzed by adjusting a hyperbolic curve to the data expressed as change of period (y-axis) as a function of the concentration of the test compound (x-axis) in the XLfit™ software and the CE Delta (t+1 h) was interpolated from this curve.

casein kinase 1 epsilon (CK1 epsilon), sequence (P49674 whole entry): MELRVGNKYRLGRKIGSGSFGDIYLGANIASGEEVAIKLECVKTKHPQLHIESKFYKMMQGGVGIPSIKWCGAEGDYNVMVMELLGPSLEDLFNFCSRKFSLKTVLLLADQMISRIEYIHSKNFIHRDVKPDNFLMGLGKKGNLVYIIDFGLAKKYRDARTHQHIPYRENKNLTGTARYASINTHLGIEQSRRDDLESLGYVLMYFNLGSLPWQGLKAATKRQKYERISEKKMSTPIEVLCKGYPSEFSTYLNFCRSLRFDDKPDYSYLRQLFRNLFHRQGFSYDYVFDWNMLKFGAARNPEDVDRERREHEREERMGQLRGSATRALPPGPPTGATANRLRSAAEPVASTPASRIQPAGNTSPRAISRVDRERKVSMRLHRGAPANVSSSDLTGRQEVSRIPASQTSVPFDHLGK

Row | Compound | IC50 [1] [nM] | IC50 (human CK1 delta) [nM] | melting point [°C] | CE Delta (t + 1 h) [2] [nM]
1 | c1ccc(-c2nc3ccc(N4CCNCC4)nn3c2-c2ccncc2)cc1 [Compound 1, 2-Phenyl-6-piperazin-1-yl-3-pyrid-4-ylimidazo[1,2-b]pyridazine] | 3 | – | – | –
2 | Cc1c(N2CCNCC2)nn2c(-c3ccncc3)c(-c3ccc(F)cc3)nc2c1C [Compound 3, 2-(4-Fluorophenyl)-7,8-dimethyl-6-piperazin-1-yl-3-pyrid-4-ylimidazo[1,2-b]pyridazine] | 1 | – | – | –
3 | Cc1cc(C)cc(-c2nc3ccc(N4CCNC(C)(C)C4)nn3c2-c2ccnc(N)c2)c1 [Compound 30, 4-[2-(3,5-Dimethylphenyl)-6-(3,3-dimethylpiperazin-1-yl)imidazo[1,2-b]pyridazin-3-yl]pyrid-2-ylamine] | 60 | – | – | –
4 | CC1(C)CN(c2ccc3nc(-c4cc(F)cc(F)c4)c(-c4ccncc4)n3n2)CCN1 [Compound 31, 2-(3,5-Difluorophenyl)-6-(3,3-dimethylpiperazin-1-yl)-3-pyrid-4-ylimidazo[1,2-b]pyridazine] | – | 91 to 93 | – | –
5 | CN1CCN(c2ccc3nc(-c4ccc(F)cc4)c(-c4ccncc4)n3n2)CC1 [Compound 50, 2-(4-Fluorophenyl)-6-(4-methylpiperazin-1-yl)-3-pyrid-4-ylimidazo[1,2-b]pyridazine] | – | 5 | – | 28
6 | CC(C)N1CCN(c2ccc3nc(-c4ccc(Cl)cc4)c(-c4ccnc(N)c4)n3n2)CC1 [Compound 81, 4-[2-(4-Chlorophenyl)-6-(4-isopropylpiperazin-1-yl)imidazo[1,2-b]pyridazin-3-yl]pyrid-2-ylamine] | – | 59 to 110 | 236 to 239 | –
7 | {4-[2-(4-Fluorophenyl)-6-((R)-3-methylpiperazin-1-yl)imidazo[1,2-b]pyridazin-3-yl]pyrid-2-yl}methylamine [Compound 153] | 8 | – | – | 2 to 9

Now from value to compound, other results behind:

Row | IC50 [1] [nM] | IC50 (human CK1 delta) [nM] | melting point [°C] | Compound | CE Delta (t + 1 h) [2] [nM]
8 | – | – | 204 to 206 | Fc1ccc(-c2nc3ccc(N4CC5CN(C6CC6)CC5C4)nn3c2-c2ccncc2)cc1 (stereo not shown) [Compound 115, 6-(5-Cyclopropylhexahydropyrrolo[3,4-c]pyrrol-2(1H)-yl)-2-(4-fluorophenyl)-3-pyrid-4-ylimidazo[1,2-b]pyridazine] | 2
9 | – | – | 193 to 195 | CN(C)C1CCN(c2ccc3nc(-c4ccc(F)cc4)c(-c4ccncc4)n3n2)CC1 [Compound 146, {1-[2-(4-Fluorophenyl)-3-pyrid-4-ylimidazo[1,2-b]pyridazin-6-yl]piperid-4-yl}dimethylamine] | 39
10 | 22 to 116 | 50 to 53 | – | c1ccc(-c2nc3ccc(N4CCC(N5CCCC5)CC4)nn3c2-c2ccncc2)cc1 [Compound 147, 2-Phenyl-3-pyrid-4-yl-6-(4-pyrrolidin-1-ylpiperid-1-yl)-imidazo[1,2-b]pyridazine] | –
